# Measurements taken from US20240132431A1, “METHOD FOR ALKYLATING ACIDIC FUNCTIONAL GROUP” (Chugai Seiyaku Kabushiki Kaisha, priority 2021, published 2024).
# Target: T1, Bcl-2 protein (Recombinant Human Bcl-2 Protein) (Homo sapiens, UniProt P10415)
# T1 construct: purchased Novus NBP2-34889
# Assay: Binding evaluation of mixture library compounds to Bcl-2 using AS-MS (affinity selection mass spectrometry)
# Conditions: for ASMS ratio (%) n = 1 / ASMS ratio (%) n = 2: ASMS Ratio(%)=(A−C)/B×100; for ASMS ratio (%) n = 1: replicate n = 1; for ASMS ratio (%) n = 2: replicate n = 2
# Description: For one well of MICROPLATE, 96-well, PP, V-BOTTOM (Greiner bio-one, 651201), DMSO solutions of 12 mixtures (prepared to approximately 0.58 mM based on calculations from the average molecular weight of each mixture), in each of which 100 compounds are mixed, were each dispensed, and dispensed into a total of 12 wells, where the 12 mixtures are mixAI-B4J-01, mixAI-B1M-01, mixAI-B1K-01, mixAI-B10-01, mixAI-B1A-01, mixAI-B3A-01, mixAI-B21-01, mixAI-B2L-01, mixAI-B2N-01, mixAI-B2A-01, mixAI-B2Q-01, and mixAI-B2R-01 listed in [Table AI-03-B4J-01], [Table AI-03-B1M-01], [Table AI-03-B1K-01], [Table AI-03-B10-01], [Table AI-03-B1A-01], [Table AI-03-B3A-01], [Table AI-03-B2I-01], [Table AI-03-B2L-01], [Table AI-03-B2N-01], [Table AI-03-B2A-01], [Table AI-03-B2Q-01], and [AI-03-B2R-01] shown in Example 6. Using the LABCYTE ECHO® 555 Acoustic Dispensing System (BECKMAN COULTER), 70 nL was collected from each of the 12 wells into one arbitrary well to prepare a sample solution with 1200 compounds in the mixed state (the presence of 1152 compounds had already been identified when prepared in Example 6-5-3). (In the present specification, the mixture collected in this one well is referred to as one library.) Furthermore, a Bcl-2 protein (Novus, NBP2-34889, Recombinant Human Bcl-2 Protein, Lot E60145051) (19.2 μL) that had been prepared in advance to be 20.9 μM using a Tris-HCl buffer (25 mM Tris-HCl pH 7.4, 150 mM NaCl, 0.025% Tween-20, 1 mM DTT) was added to the well in which 1200 compounds (the presence of 1152 compounds had already been identified when prepared in Example 6-5-3) were dispensed (final compound concentration […], final Bcl-2 concentration 20 μM), and the mixture was incubated in the dark at 23° C. for 1 hour. Next, using the 96-well MacroSpin column, P-2 Material (Harvard, 74-5655) that had been swollen, conditioning of the 96-well MacroSpin column was performed three times by centrifugation with 200 μL of an assay buffer (25 mM Tris-HCl pH 7.4, 150 mM NaCl, 0.025% Tween-20, 1 mM DTT), 2000 XG, 4° C., 2 min. Subsequently, 20 μL of the sample after incubation was added to the 96-well MacroSpin column, P-2 Material, that had been conditioned, and SEC treatment was performed by centrifugation at 2000×G for 2 minutes. To the liquid passed from the SEC, 32 μL of a 1:1 mixed solution of acetonitrile and methanol (LC/MS grade, Fujifilm Wako Pure Chemical Corporation) was added, the mixture was centrifuged at 1800×G, 4° C., 5 min, and the supernatant was used as analysis sample ASMS (A), while a sample that had been prepared by the same operations at 1200 compounds/well and to which only the Tris-HCl buffer had been added without the Bcl-2 protein was incubated under the same conditions, no 96-well MacroSpin column treatment was performed, the same organic solvent was added, and the supernatant solution obtained by centrifugation was used as STD (B). Next, a sample that had been prepared by the same operations at 1200 compounds/well and to which only the Tris-HCl buffer had been added without the Bcl-2 protein was incubated under the same conditions, the same 96-well MacroSpin column treatment was performed, the same organic solvent was added, and the supernatant solution obtained by centrifugation was used as BK (C), and measured by reversed phase LC/MS.
# Then, analysis of the 1200 compounds was carried out for samples A, B, and C with TraceFinder 5.1 (Thermo Fisher Scientific) and CHANCE Software (in-house), and the ASMS Ratio (%) was calculated according to the following calculation formula.
# Calculation formula: ASMS Ratio(%)=(A−C)/B×100
# [1] = AS-MS, mixture of 1200 compounds, Bcl-2
# [2] = AS-MS on the mixture of 1200 library compounds
# T1 sequence (P10415 whole entry): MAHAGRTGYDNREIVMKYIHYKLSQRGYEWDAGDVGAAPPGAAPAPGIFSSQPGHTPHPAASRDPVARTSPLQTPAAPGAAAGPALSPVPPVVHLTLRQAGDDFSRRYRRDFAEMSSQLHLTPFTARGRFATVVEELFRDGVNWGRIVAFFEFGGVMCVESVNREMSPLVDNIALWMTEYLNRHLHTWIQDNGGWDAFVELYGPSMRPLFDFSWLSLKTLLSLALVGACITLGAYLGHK
molecule,measurement,setting,value
CCCNC(=O)c1ccc(N2CCN(Cc3ccccc3C#Cc3cncc(OCC)c3)CC2)cc1 [B1M054-01],ASMS ratio (%) n = 1,[1],0.9%
same,ASMS ratio (%) n = 2,[1],0.0%
CCOc1cccc(-c2ccc(CN3CCN(c4ccc(C(=O)Nc5ccc(OC)cc5)nn4)CC3)c3ccccc23)c1 [B1O091-01],ASMS ratio (%) n = 1,[2],4.5%
same,ASMS ratio (%) n = 2,[2],2.2%
4-[4-[3-[2-(5-Ethoxypyridin-3-yl)phenyl]propanoyl]piperazin-1-yl]-N-propylbenzamide [B1M078-01],ASMS ratio (%) n = 1,[1],0.0%
same,ASMS ratio (%) n = 2,[1],0.0%
"CCOc1cccc(-c2ccccc2CN2CCN(c3ccc(C(=O)NS(=O)(=O)CCC(F)(F)F)nn3)CC2)c1 [B2N071-01, 6-[4-[[2-(3-Ethoxyphenyl)phenyl]methyl]piperazin-1-yl]-N-(3,3,3-trifluoropropylsulfonyl)pyridazine-3-carboxamide]",ASMS ratio (%),n = 1,0.0%
same,ASMS ratio (%),n = 2,0.0%
"CCOc1cncc(-c2ccccc2CN2CCN(c3ccc(C(=O)NS(=O)(=O)c4ccc(NCCSc5ccccc5)c([N+](=O)[O-])c4)nn3)CC2)c1 [B2Q072-01, 6-[4-[[2-(5-Ethoxypyridin-3-yl)phenyl]methyl]piperazin-1-yl]-N-[3-nitro-4-(2-phenylsulfanylethylamino)phenyl]sulfonylpyridazine-3-carboxamide]",ASMS ratio (%) n = 1,"AS-MS, mixture library, Bcl-2",10.2%
same,ASMS ratio (%) n = 2,"AS-MS, mixture library, Bcl-2",11.4%
"CCOc1cncc(-c2cc(CN3CCN(c4ccc(C(=O)NS(C)(=O)=O)cc4)CC3)cc(OC(C)C)c2)c1 [B2I058-01, 4-[4-[[3-(5-Ethoxypyridin-3-yl)-5-propan-2-yloxyphenyl]methyl]piperazin-1-yl]-N-methylsulfonylbenzamide]",ASMS ratio (%),n = 1,0.0%
same,ASMS ratio (%),n = 2,0.0%
"CCOc1cncc(C#Cc2ccccc2C(=O)N2CCN(c3ccc(C(=O)NS(=O)(=O)c4ccc(NCCSc5ccccc5)c(C(F)(F)F)c4)nn3)CC2)c1 [B2R008-01, 6-[4-[2-[2-(5-Ethoxypyridin-3-yl)ethynyl]benzoyl]piperazin-1-yl]-N-[4-(2-phenylsulfanylethylamino)-3-(trifluoromethyl)phenyl]sulfonylpyridazine-3-carboxamide]",ASMS ratio (%),n = 1,0.0%
same,ASMS ratio (%),n = 2,19.5%
"CCOc1cccc(-c2ccc(CN3CCN(c4ccc(C(=O)N(C)CC56CC7CC(CC(C7)C5)C6)cc4)CC3)c(OC)c2)c1 [B3A053-01, N-(1-Adamantylmethyl)-4-[4-[[4-(3-ethoxyphenyl)-2-methoxyphenyl]methyl]piperazin-1-yl]-N-methylbenzamide]",ASMS ratio (%) n = 1,[2],12.5%
same,ASMS ratio (%) n = 2,[2],9.9%
"CCOc1cccc(-c2cc(CN3CCN(c4ccc(C(=O)N(C)CC56CC7CC(CC(C7)C5)C6)nn4)CC3)cc(OC(C)C)c2)c1 [B3A083-01, N-(1-Adamantylmethyl)-6-[4-[[3-(3-ethoxyphenyl)-5-propan-2-yloxyphenyl]methyl]piperazin-1-yl]-N-methylpyridazine-3-carboxamide]",ASMS ratio (%) n = 1,[2],3.9%
same,ASMS ratio (%) n = 2,[2],−18.6%
"CCOc1cccc(-c2ccccc2CCC(=O)N2CCN(c3ccc(C(=O)NS(=O)(=O)CC45CC6CC(CC(C6)C4)C5)cc3)CC2)c1 [B2A033-01, N-(1-Adamantylmethylsulfonyl)-4-[4-[3-[2-(3-ethoxyphenyl)phenyl]propanoyl]piperazin-1-yl]benzamide]",ASMS ratio (%) n = 1,"AS-MS, mixture library, Bcl-2",1.7%
same,ASMS ratio (%) n = 2,"AS-MS, mixture library, Bcl-2",−4.5%
"CCOc1cncc(-c2csc(CN3CCN(c4ccc(C(=O)NS(=O)(=O)c5ccc(NCCSc6ccccc6)c(C(F)(F)F)c5)cc4)CC3)c2)c1 [B2R068-01, 4-[4-[[4-(5-Ethoxypyridin-3-yl)thiophen-2-yl]methyl]piperazin-1-yl]-N-[4-(2-phenylsulfanylethylamino)-3-(trifluoromethyl)phenyl]sulfonylbenzamide]",ASMS ratio (%),n = 1,0.0%
same,ASMS ratio (%),n = 2,0.0%
"CCOc1cncc(-c2ccc(CN3CCN(c4ccc(C(=O)NCC(F)(F)F)nn4)CC3)cc2F)c1 [B1K078-01, 6-[4-[[4-(5-Ethoxypyridin-3-yl)-3-fluorophenyl]methyl]piperazin-1-yl]-N-(2,2,2-trifluoroethyl)pyridazine-3-carboxamide]",ASMS ratio (%) n = 1,[1],0.8%
same,ASMS ratio (%) n = 2,[1],−0.2%
"CCOc1cccc(-c2ccc(CN3CCN(c4ccc(C(=O)Nc5ccc(OC)cc5)cc4)CC3)c(OC)c2)c1 [B1O053-01, 4-[4-[[4-(3-Ethoxyphenyl)-2-methoxyphenyl]methyl]piperazin-1-yl]-N-(4-methoxyphenyl)benzamide]",ASMS ratio (%) n = 1,[2],2.2%
same,ASMS ratio (%) n = 2,[2],−1.0%
"CCOc1cncc(-c2ccc(C(=O)N3CCN(c4ccc(C(=O)NCC56CC7CC(CC(C7)C5)C6)nn4)CC3)cc2F)c1 [B1A006-01, N-(1-Adamantylmethyl)-6-[4-[4-(5-ethoxypyridin-3-yl)-3-fluorobenzoyl]piperazin-1-yl]pyridazine-3-carboxamide]",ASMS ratio (%) n = 1,[1],2.4%
same,ASMS ratio (%) n = 2,[1],9.1%
"CCOc1cccc(C#Cc2cncc(C(=O)N3CCN(c4ccc(C(=O)NS(C)(=O)=O)cc4)CC3)c2)c1 [B2I031-01, 4-[4-[5-[2-(3-Ethoxyphenyl)ethynyl]pyridine-3-carbonyl]piperazin-1-yl]-N-methylsulfonylbenzamide]",ASMS ratio (%) n = 1,"AS-MS, mixture library, Bcl-2",0.0%
same,ASMS ratio (%) n = 2,"AS-MS, mixture library, Bcl-2",0.0%
"CCOc1cccc(C#Cc2cc(C(=O)N3CCN(c4ccc(C(=O)NS(=O)(=O)CC56CC7CC(CC(C7)C5)C6)nn4)CC3)cc(C(F)(F)F)c2)c1 [B2A019-01, N-(1-Adamantylmethylsulfonyl)-6-[4-[3-[2-(3-ethoxyphenyl)ethynyl]-5-(trifluoromethyl)benzoyl]piperazin-1-yl]pyridazine-3-carboxamide]",ASMS ratio (%) n = 1,"AS-MS, mixture library, Bcl-2",7.4%
same,ASMS ratio (%) n = 2,"AS-MS, mixture library, Bcl-2",5.0%
"CCOc1cccc(-c2ccccc2CCC(=O)N2CCN(c3ccc(C(=O)N(CC)CC)cc3)CC2)c1 [B4J033-01, 4-[4-[3-[2-(3-Ethoxyphenyl)phenyl]propanoyl]piperazin-1-yl]-N,N-diethylbenzamide]",ASMS ratio (%) n = 1,[2],0.0%
same,ASMS ratio (%) n = 2,[2],−0.9%
CCOc1cncc(-c2csc(CN3CCN(c4ccc(C(=O)NS(=O)(=O)CCC(F)(F)F)cc4)CC3)c2)c1 [B2N068-01],ASMS ratio (%),n = 1,0.0%
same,ASMS ratio (%),n = 2,0.5%
"CCOc1cncc(-c2ccc(CN3CCN(c4ccc(C(=O)NS(=O)(=O)C(C)(C)C)nn4)CC3)cc2C)c1 [B2L074-01, N-tert-Butylsulfonyl-6-[4-[[4-(5-ethoxypyridin-3-yl)-3-methylphenyl]methyl]piperazin-1-yl]pyridazine-3-carboxamide]",ASMS ratio (%),n = 1,−1.0%
same,ASMS ratio (%),n = 2,1.4%
